Broadly, the IC50 is the point on the concentration scale where inhibition reaches its midpoint.

Chain of KRas G12D/Q61H double mutant (P01116-2 other isoform, or with tags, fused parts or gaps G12D/Q61H): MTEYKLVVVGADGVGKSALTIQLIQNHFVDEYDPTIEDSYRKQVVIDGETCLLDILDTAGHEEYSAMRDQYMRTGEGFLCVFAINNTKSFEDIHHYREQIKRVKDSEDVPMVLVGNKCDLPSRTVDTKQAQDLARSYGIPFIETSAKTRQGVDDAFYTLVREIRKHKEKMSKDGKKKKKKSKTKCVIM

One assay concerns the target KRas G12D/Q61H double mutant (Homo sapiens (Human), UniProt P01116, G12D/Q61H). The experiment in a line: Ras GTP binding domain inhibition assay (labeled GTP). The conditions noted are these: 20 μM. On the procedure: Buffer-I: • 50 mM Tris, pH 7.5 • 150 mM NaCl (optional) • 1 mM MgCl2 • 1 mM DTT. • KRas G12D mutant protein was expressed as a His-tagged protein. Purified His-KRas G12D protein was diluted in buffer-I to a final concentration of 3-10 μg/ml. • 200 μl of the diluted His-KRas G12D protein was added to a nickel coated 96 well plate and incubated overnight at 4° C. • The next day, wells were washed 3× in 200 μl of Buffer-I. • Then 200 μl of Buffer-I were added to each well in the presence of 1% DMSO. • Tested compounds were added to the protein-coated wells at a concentration of 20 μM, and incubated for 3 hours at room temperature. While performing IC50 measurements a serial dilution of all tested concentrations was prepared.
Then 22 μl of Cy3-GTP or Cy5-GTP was added to each well. The labeled GTP was incubated for 45 min. at room temperature. • Following GTP incubation, wells were washed 3× in Buffer-I, and 200 μl of Buffer-I were added to each well. • Following washes, the amount of bound labeled-GTP was measured with an Eppendorf AF2200 plate reader.
By substituting KRas G12D mutant protein with KRas G12C mutant, KRas wild type, KRas Q61H mutant, KRas G12D/Q61H double mutant or KRas G12C/Q61H double mutant under the assay conditions described above, KRas G12C mutant KRas wild type, KRas Q61H mutant, KRas G12D/Q61H double mutant and KRas G12C/Q61H double mutant inhibition, respectively, were each determined.
With `O=C(COc1ccc(F)cc1F)Nc1nnc(-c2ccccn2)[nH]1` [drawing 2459], the “KRas G12D Q61H % Inh.” value was “C (C = 51-75% inhibition)”.

Staying with this assay, now noted: 20 μM compound.
Consider `COc1cccc(OCCn2c(CN3CCCCC3)nc3ccccc32)c1` [drawing 3033], for which the “% Inhibition at 20 μM KRas G12D Q61H” value is given as “B (B = 25-50% inhibition)”.

The same assay, now with this note: 20 μM compound; KRas G12D/Q61H double mutant; read-out: % Inhibition at 20 μM of K-Ras mutant and wild-type protein, KRas G12D Q61H.
`O=C(CN(Cc1csc(COc2ccc(F)cc2)n1)Cc1ccco1)Nc1ccccc1`: the inhibition at 20 µM lay within 25 to 50%.
As for `O=C(CCCOc1ccc(Cl)cc1Cl)N1N=CCC1(O)C(F)(F)F` (stereo not shown), the inhibition at 20 µM was 25 to 50%.
Still for that read-out and setting: then `CCCOc1ccc2ccccc2c1CN(C)C(=O)C1CCCN(c2ncccn2)C1` (stereo not shown), with 25 to 50%; and `CCOc1ccc(Oc2ccc(C(F)(F)F)cc2NCc2nc(C)no2)cc1`, with 51 to 75%; and `COc1ccc(N(CC(=O)N(c2ccccc2)C(C)C)S(=O)(=O)c2ccccc2C(F)(F)F)cc1`, with 25 to 50%.
Still for that read-out and setting: to `COc1ccc(-c2oc3ncn(CCCn4ccnc4)c(=N)c3c2-c2ccc(OC)cc2)cc1` belongs 25 to 50%; to `COc1ccc(CN(C(C)C2CC2)S(=O)(=O)c2cccs2)cc1` (stereo not shown), 25 to 50%; to `O=C(CCOCc1ccccc1)Nc1nnc(-c2ccccn2)[nH]1`, 51 to 75%.
Same read-out and setting: then `CCN(CCNC(=O)c1oc(-c2ccccc2)nc1C)c1ccccc1C`, with 51 to 75%; and `Cc1cc2oc(=O)cc(CN(C)Cc3c(C)nn(Cc4ccccc4Cl)c3C)c2cc1C`, with 25 to 50%; and `CC(CC(N)=O)Nc1cc(C(F)(F)F)nc(-c2ccccn2)n1` (stereo not shown), with 1 to 25%.
Turning to `OCC1(Cc2ccccc2)CCCN1c1nc(-c2ccccn2)nc2c1CCC2` (stereo not shown), the inhibition at 20 µM is 25 to 50%.
Same read-out and setting: to `COC(=O)c1sccc1S(=O)(=O)NCCCCCc1nc(-c2ccc(C)cc2)no1` belongs 25 to 50%; to `CCOC(=O)c1c(NC(C)=O)sc(Cc2ccc3c(c2)OCO3)c1C`, 25 to 50%.
`CCN(CC)S(=O)(=O)c1cccc(C(=O)N2N=C(c3ccccc3)CC2(O)C(F)(F)F)c1` (stereo not shown): the inhibition at 20 µM lay within 25 to 50%.
Regarding `COC(=O)c1cc(NCc2cnc(C(C)(C)C)s2)ccc1Br`, the inhibition at 20 µM was in the range of 25 to 50%.

Still in this assay, the particulars now being: 20 μM compound; read-out: % Inhibition at 20 μM KRas G12D Q61H.
With `COc1ccc(S(=O)(=O)N2CCCCCC2)cc1C(=O)NCCc1ccccc1`, the inhibition at 20 µM was 25 to 50%.
Consider `O=C(CCNS(=O)(=O)c1ccc2c(c1)CCCC2)Nc1nnc(-c2ccccn2)[nH]1`, for which the inhibition at 20 µM lay in the range of 25 to 50%.
In the case of `COc1cnc(CNC(=O)Cn2cnc3nc(-c4ccccn4)nc(N4CCOCC4)c32)[nH]c1=O` [drawing 2824], the inhibition at 20 µM is 1 to 25%.
On the same count and under the same terms, then `CC(c1ccc(Cl)cc1Cl)N(C)Cc1nnc(-c2ccccc2)o1` (stereo not shown), with 25 to 50%.
Same read-out and setting: then `COc1ccccc1OCc1ccc(C(=O)N2CCc3ccccc32)o1`, with 25 to 50%; and `O=C(Nc1nnc(-c2ccccn2)[nH]1)c1ccc(Cn2ccccc2=O)o1`, with 25 to 50%.
On the same count and under the same terms, then `Cc1nc(-c2ccccn2)nc(O)c1CCC(=O)N(C)c1cccc(C#N)c1`, with 25 to 50%; and `N#Cc1ccc(OCCSc2nnc(COc3ccc(F)cc3)o2)cc1`, with 25 to 50%.
On to `Nc1nc(O)c2scc(C(=O)N3CCc4ccccc4CC3)c2n1` [drawing 2671], for which the inhibition at 20 µM fell in the range of 1 to 25%.
On the same count and under the same terms, to `Cc1nc(CN(Cc2ccccc2)Cc2ccccc2)no1` belongs 25 to 50%.
Same read-out and setting: to `CCNC(=O)CNc1nc(-c2ccccn2)nc(C)c1C` belongs 25 to 50%; to `O=c1[nH]c(-c2cc(OCC(F)F)ccn2)nc2cc(F)ccc12`, 51 to 75%; to `Cc1nccc(-c2nc3cc(F)ccc3c(=O)[nH]2)n1`, 76 to 100%.
Still for that read-out and setting: then `COc1ccc(CN(Cc2cccs2)C(=O)c2cc3ccccc3o2)cc1OC`, with 25 to 50%; and `CCCOc1ccc(C(F)(F)F)cc1NCc1ncc(C)o1`, with 25 to 50%.
For the compound `COC(=O)c1cccc(CN2CCN(c3cccc(C(F)(F)F)c3)CC2)c1`, the inhibition at 20 µM fell in the range of 25 to 50%.
On the same count and under the same terms, to `CCc1cc(NNC(=O)c2ccc(C)s2)nc(-c2ccccn2)n1` belongs 25 to 50%.
On the same count and under the same terms, to `Cc1csc(C2CN(Cc3ccn(C)c(=O)c3)CCO2)n1` (stereo not shown) belongs 1 to 25%; to `CCN(CC)CCC(C)Nc1nc(-c2ccccn2)nc2sccc12` (stereo not shown) [drawing 2706], 25 to 50%; to `CC(C)N1C(=O)CC(Nc2cc(C(F)(F)F)nc(-c3ccccn3)n2)C1=O` (stereo not shown), 1 to 25%.
Consider `O=C(c1nccc2ccccc12)N(Cc1nccn1C(F)F)C1CC1`, for which the inhibition at 20 µM is 1 to 25%.
As for `O=C(c1csc2c(O)nc(-c3ccccn3)nc12)N1CCN(c2cccc(O)c2)CC1`, the inhibition at 20 µM is 25 to 50%.
The same measure, in the same setting: then `CN(C(=O)c1ccc(COc2ccc(Br)cc2)o1)C1CCS(=O)(=O)C1` (stereo not shown), with 1 to 25%; and `CCN(CC(=O)Nc1ccc(OC)cc1)Cc1coc(-c2ccc(C)cc2C)n1`, with 25 to 50%.
Turning to `CCCN(CC1CC1)S(=O)(=O)Oc1cccc(C(=O)NCc2ccccc2)c1`, the inhibition at 20 µM lay in the range of 25 to 50%.
For `Cc1cccc(CN(Cc2ccccn2)Cc2ncc(C(C)(C)C)o2)c1`, the inhibition at 20 µM fell in the range of 1 to 25%.
The same measure, in the same setting: then `COc1cc(N2CCN(C(=O)c3csc4c(O)nc(-c5ccccn5)nc34)CC2)ccc1O` [drawing 2820], with 1 to 25%; and `COc1ccc(OCCSc2nnc(C(C)Oc3ccc(F)cc3)o2)cc1` (stereo not shown), with 25 to 50%; and `Cc1cnc(-c2ccccn2)nc1NC(=O)COCc1ccnc(O)c1` [drawing 2816], with 25 to 50%.
For the compound `COc1ccc(-c2nc(C(=O)NC(C)c3ccccn3)cs2)cc1` (stereo not shown), the inhibition at 20 µM was in the range of 25 to 50%.
The same measure, in the same setting: to `O=c1[nH]c(-c2ccccn2)nc2ccccc12` belongs 25 to 50%.
The same measure, in the same setting: to `Cc1cccc(OCCNC(=O)c2cc(S(=O)(=O)N3CCOCC3)ccc2N2CCOCC2)c1` belongs 1 to 25%.
Consider `COCCOCCN(C)C(=O)c1csc2c(O)nc(-c3ccccn3)nc12` [drawing 2686], for which the inhibition at 20 µM is 51 to 75%.
In the case of `COc1ccccc1CN(Cc1cccs1)C(=O)c1ccc(-c2nc(C)no2)cc1`, the inhibition at 20 µM was in the range of 1 to 25%.
On the same count and under the same terms, then `O=C(CCc1nc2ccccc2[nH]1)Nc1nnc(-c2ccccn2)[nH]1`, with 51 to 75%; and `O=C(Nc1nnc(-c2ccccn2)[nH]1)c1ccc(NC2CC2)nc1`, with 25 to 50%; and `CC(C)CN1CC(C(=O)Nc2nc(-c3ccccn3)cs2)CC1=O` (stereo not shown), with 1 to 25%.
Still for that read-out and setting: to `COc1cccc(C2CN(C(=O)c3csc4c(O)nc(-c5ccccn5)nc34)CCO2)c1` (stereo not shown) [drawing 2729] belongs 25 to 50%.
Still for that read-out and setting: then `CCc1cc(NC(C)C(=O)N2CCOCC2)nc(-c2ccccn2)n1` (stereo not shown), with 1 to 25%; and `COc1ccc(CCC(=O)Nc2nnc(-c3ccccn3)[nH]2)cc1OC`, with 25 to 50%; and `Cc1cnc(-c2ccccn2)nc1NC(=O)Cc1ccc(C#N)cc1` [drawing 2814], with 1 to 25%.
For `O=c1[nH]c(-c2ccccn2)nc2[nH]nnc12`, the inhibition at 20 µM was in the range of 25 to 50%.
The same measure, in the same setting: then `CN(C)c1ccccc1NCc1cc(Br)c2c(c1)OCCCO2`, with 25 to 50%.
The same measure, in the same setting: then `CCOC(=O)NC1CCN(C(=O)c2csc3c(O)nc(N)nc23)CC1` [drawing 2667], with 1 to 25%.
With `O=c1[nH]c(-c2cc(OCC(F)F)ccn2)nc2cc(F)c(F)cc12`, the inhibition at 20 µM lay in the range of 25 to 50%.
For the compound `COc1ccccc1CN(Cc1cccs1)C(=O)c1ccc(C#N)cc1`, the inhibition at 20 µM was 25 to 50%.
Same read-out and setting: then `Nc1nc(O)c2scc(-c3ccccc3)c2n1` [drawing 2692], with 1 to 25%.

Staying with this assay, now noted: 20 μM; read-out: KRas G12D Q61H % Inh.
As for `CC(C)(C)c1noc(CCC(=O)Nc2nnc(-c3ccccn3)[nH]2)n1` [drawing 2493], the inhibition at 20 µM lay within 51 to 75%.
Same read-out and setting: to `N#CCc1ccc(OCC(=O)Nc2nnc(-c3ccccn3)[nH]2)cc1` [drawing 2552] belongs 51 to 75%; to `COc1ccc2c(ccn2CC(=O)Nc2nnc(-c3ccccn3)[nH]2)c1` [drawing 2470], 51 to 75%; to `O=C(COc1ccccc1)Nc1nnc(-c2ccccn2)[nH]1` [drawing 2545], 51 to 75%.
In the case of `COc1ccc(CC(=O)Nc2nnc(-c3ccccn3)[nH]2)cc1` [drawing 2485], the inhibition at 20 µM lay within 51 to 75%.
The same measure, in the same setting: then `O=C(Nc1nnc(-c2ccccn2)[nH]1)c1ncoc1-c1cccs1` [drawing 2501], with 51 to 75%.
Still for that read-out and setting: then `Cc1cccc(OCC(=O)Nc2nnc(-c3ccccn3)[nH]2)c1` [drawing 2555], with 51 to 75%; and `Cc1ccc(CC(=O)Nc2nnc(-c3ccccn3)[nH]2)s1` [drawing 2521], with 51 to 75%; and `O=C(CCc1cnn(-c2ccccc2)c1)Nc1nnc(-c2ccccn2)[nH]1` [drawing 2450], with 51 to 75%.
On the same count and under the same terms, to `Cc1cccc(C(=O)Nc2nnc(-c3ccccn3)[nH]2)n1` [drawing 2524] belongs 51 to 75%.

The same assay, now with this note: read-out: KRas G12D Q61H IC50.
For `Cc1cccc(OCC(=O)Nc2nnc(-c3ccccn3)[nH]2)c1` [drawing 2555], the IC50 was in the range of 5 to 10 µM.

For the origin of these results see patent publication US10940139B2, “Compounds that interact with the Ras superfamily for the treatment of cancers, inflammatory diseases, rasopathies, and fibrotic disease” (Shy Therapeutics LLC, priority 2017, dated 2021).
